Like-named read-outs stand apart in the source and are kept apart here.
Tests used:
[1] = octanol/water partition coefficient; format: physicochemical; conditions: for logP: octanol/water, read-out: Partition coeff. (octanol/H2O) (converted)
[2] = Hypotensive activity in anesthetized rats (mean arterious pressure, i.v. bolus); format: in vivo, male albino rats (D strain, Charles River); conditions: for Potency ratio, In vivo: Table III; for ED20: iv, read-out: ED20, dose reducing by 20% the mean arterious pressure (graphically calculated)
Experimental: Male albino rats were used (D strain, Charles River) anesthetized with a starting dose of sodium pentobarbital of 60 mg/kg i.p. and thermoregulated at 37° C. Mean arterious pressure was monitored at right carotidis arteria, while the compounds were administered as a bolus into the jugular vein, at constant volumes of 0.3 and 1 ml/kg.
The results, expressed as ED20, dose causing a 20% reduction in the mean arterious pressure (graphically calculated) are expressed in table III, relating to compounds substituted at the 2- and 5-positions.

[3] = system: helicoidal strips of rabbit aorta; assay: In vitro vasodilating activity: inhibition of K+-induced contraction of aorta strips; format: cell-based, male albino rabbits (New Zealand strain); conditions: for Potency ratio, In vitro: Table III; for IC50: Oryctolagus cuniculus, read-out: ED50 (concentration causing a 50% inhibition of contraction); for times more active than the starting mononitrate: in vitro, II vs IS-5N, X vs IS-2N
Experimental: Aorta strips from male albino rabbits (New Zealand strain), prepared according to the method by Furchgott and Bhadrakom--J. Pharm. Exp. Ther. 108, 129 (1953), were contracted with a solution enriched in K^+ (100 mM). When the contraction was stable, the test compounds were added, according to the method of cumulative dosages.
The responses were isometrically recorded and expressed as contraction percentage inhibition. The concentration causing 50% inhibition (ED50) was calculated on the basis of the equation of the linear tract of the dose-response curves. The obtained results expressed as ED50 values are reported in tables I and II (which respectively relate to the compounds substituted at the 2-and and 5-positions), together with the values of the octanol/water partition coefficient. The potency ratio for each compound, in comparison with the starting mononitrate, IS-2-N and IS-5-N, is reported in the same tables.

[4] = Arterious pressure in the anesthetized rabbit, in vein administration; format: in vivo
Description: The above results are confirmed also in another animal species.

[5] = Table II, 5-acyl derivatives of isosorbide 2-nitrate
[6] = Table II, in comparison with isosorbide 2-nitrate
[7] = Table I, 2-acyl derivatives of isosorbide 5-nitrate
[8] = Table I, 2-acyl derivatives of isosorbide 5-nitrate, K+ 100 mM
[9] = Table I, in comparison with isosorbide 5-nitrate
[10] = Table II, 5-acyl derivatives of isosorbide 2-nitrate, K+ 100 mM

Compound	logP [1, 5]	logP [1, 7]	Potency ratio, In vivo ([2]; relative to IS-2-N)	ED20 ([2]; anesthetized rat) [µmol/kg]	Potency ratios (confidence limits) [3, 6]	Potency ratio, In vitro ([3]; relative to IS-2-N)	Potency ratio, In vivo ([2]; relative to IS-5-N)	Potency ratios (confidence limits) [3, 9]	Potency ratio, In vitro ([3]; relative to IS-5-N)	further results
CCC(=O)O[C@H]1CO[C@H]2[C@@H]1OC[C@H]2O[N+](=O)[O-] [IS-2P-5N, isosorbide 5-nitrate 2-propionate, reference compound]		1.15		2.3			≈ 65	5.19 (3.53-7.52)	5	IC50 [3, 8]: 56.8 µM
O=[N+]([O-])O[C@@H]1CO[C@H]2[C@@H]1OC[C@@H]2O [IS-5-N, 1,4:3,6-dianhydrosorbitol 5-nitrate, reference compound]		-0.0501					1	1.0	1	ED20 ([2]; Rattus norvegicus): 150 µmol/kg; IC50 [3]: 253 µM
COc1ccc(C=CC(=O)O[C@H]2CO[C@H]3[C@@H]2OC[C@H]3O[N+](=O)[O-])cc1OC [IV, 1,4:3,6-dianhydrosorbitol 2-(3,4-dimethoxy)cinnamate 5-nitrate]		2.96		1.8			≈ 83	~3	3	
O=C(O)CCC(=O)O[C@H]1CO[C@H]2[C@@H]1OC[C@H]2O[N+](=O)[O-] [XIV, 1,4:3,6-dianhydrosorbitol 5-nitrate 2-(3-carboxy)propionate]		0.294					≈ 0.5	0.16 (0.10-0.25)	0.2	ED20 ([2]; Rattus norvegicus): 300 µmol/kg; IC50 [3]: 2100 µM
CC(=O)O[C@@H]1CO[C@H]2[C@@H]1OC[C@@H]2O[N+](=O)[O-] [IS-5A-2N, isosorbide 5-acetate 2-nitrate, reference compound]	0.418		≈ 5.4	2.2	6.55 (4.60-9.17)	6.5				IC50 [3, 10]: 3.97 µM
COc1cc(C=CC(=O)O[C@@H]2CO[C@H]3[C@@H]2OC[C@@H]3O[N+](=O)[O-])cc(OC)c1OC [IX, 1,4:3,6-dianhydrosorbitol 5-(3,4,5-trimethoxy)cinnamate 2-nitrate]	2.5		≈ 20	0.6	~3	6				
O=C(C=Cc1ccccc1)O[C@H]1CO[C@H]2[C@@H]1OC[C@H]2O[N+](=O)[O-] [V, 1,4:3,6-dianhydrosorbitol 2-cinnamate 5-nitrate]				1.9			≈ 79	~1	1	Partition coeff. (octanol/H2O) [1]: very high
CCCCCCCCCCCCCCCC(=O)O[C@H]1CO[C@H]2[C@@H]1OC[C@H]2O[N+](=O)[O-] [III, 1,4:3,6-dianhydrosorbitol 5-nitrate 2-palmitate]		1.35								IC50 [3, 8]: > 10 µM
COc1cc(C(=O)O[C@H]2CO[C@H]3[C@@H]2OC[C@H]3O[N+](=O)[O-])cc(OC)c1OC [II, 1,4:3,6-dianhydrosorbitol 2-(3,4,5-trimethoxy)-benzoate 5-nitrate]		2.09		1.9			≈ 79	113.48 (72.30-172.85)	113	times more lipophilic than the starting mononitrate [1]: about 140 times; hypotensive activity in words ([2]; rat): remarkable hypotensive activity in both "in vitro" and "in vivo" tests; IC50 [3, 8]: 2.72 µM; times more active than the starting mononitrate [3]: about 110 times; reduction in arterious pressure [4]: dose-depending reduction in arterious pressure; strength of arterious pressure reduction higher than that of IS-2N ([4]; vs IS-2N): about 10 times; strength of arterious pressure reduction higher than that of IS-5N ([4]; vs IS-5N): ~100 times
CCC(=O)O[C@@H]1CO[C@H]2[C@@H]1OC[C@@H]2O[N+](=O)[O-] [IS-5P-2N, isosorbide 2-nitrate 5-propionate, reference compound]	0.947				15.59 (10.74-22.44)	15.6				IC50 [3, 10]: 1.54 µM
CC(=O)O[C@H]1CO[C@H]2[C@@H]1OC[C@H]2O[N+](=O)[O-] [IS-2A-5N, isosorbide 2-acetate 5-nitrate, reference compound]		0.579		2.5			≈ 60	8.21 (5.11-13.13)	8	IC50 [3, 8]: 33.9 µM
O=C(CCC(=O)O[C@H]1CO[C@H]2[C@@H]1OC[C@H]2O[N+](=O)[O-])O[C@H]1CO[C@H]2[C@@H]1OC[C@H]2O[N+](=O)[O-] [XII, bis-(1,4:3,6-dianhydrosorbitol 5-nitrate-2-il)succinate]		1.81					≈ 21	~20	7	ED20 ([2]; Rattus norvegicus): 7 µmol/kg
O=[N+]([O-])O[C@H]1CO[C@H]2[C@@H]1OC[C@H]2O [IS-2-N, 1,4:3,6-dianhydrosorbitol 2-nitrate, reference compound]	-0.231		≈ 1		1.0	1				ED20 ([2]; Rattus norvegicus): 12 µmol/kg; IC50 [3]: 23.9 µM

Second part, led by results:

logP [1, 5]	logP [1, 7]	Compound	Potency ratio, In vivo ([2]; relative to IS-2-N)	ED20 ([2]; anesthetized rat) [µmol/kg]	Potency ratios (confidence limits) [3, 6]	Potency ratio, In vitro ([3]; relative to IS-2-N)	Potency ratio, In vivo ([2]; relative to IS-5-N)	Potency ratios (confidence limits) [3, 9]	Potency ratio, In vitro ([3]; relative to IS-5-N)	further results
1.58		CCOC(=O)CCCCC(=O)O[C@@H]1CO[C@H]2[C@@H]1OC[C@@H]2O[N+](=O)[O-] [XIII, 1,4:3,6-dianhydrosorbitol 2-nitrate 5-(5-ethoxycarbonyl)-pentanoate]	≈ 4.8	2.5	6.65 (4.81-9.10)	6.6				
2.2		COc1ccc(C=CC(=O)O[C@@H]2CO[C@H]3[C@@H]2OC[C@@H]3O[N+](=O)[O-])cc1OC [VII, 1,4:3,6-dianhydrosorbitol 5-(3,4-dimethoxy)cinnamate 2-nitrate]	≈ 40	0.3	~1	1				
1.51		CCCCCCCCCCCCCCCC(=O)O[C@@H]1CO[C@H]2[C@@H]1OC[C@@H]2O[N+](=O)[O-] [VIII, 1,4:3,6-dianhydrosorbitol 2-nitrate 5-palmitate]								
	1.48	CCOC(=O)CCCCC(=O)O[C@H]1CO[C@H]2[C@@H]1OC[C@H]2O[N+](=O)[O-] [XI, 1,4:3,6-dianhydrosorbitol 5-nitrate 2-(5-ethoxycarbonyl)pentanoate]		7			≈ 21	6.91 (4.78-9.88)	7	IC50 [3, 8]: 46.4 µM
	2.44	COc1cc(C=CC(=O)O[C@H]2CO[C@H]3[C@@H]2OC[C@H]3O[N+](=O)[O-])cc(OC)c1OC [VI, 1,4:3,6-dianhydrosorbitol 2-(3,4,5-trimethoxy)cinnamate 5-nitrate]		1.6			≈ 94	7.08 (4.21-11.67)	7	
2.08		COc1cc(C(=O)O[C@@H]2CO[C@H]3[C@@H]2OC[C@@H]3O[N+](=O)[O-])cc(OC)c1OC [X, 1,4:3,6-dianhydrosorbitol 5-(3,4,5-trimethoxy)-benzoate 2-nitrate]	≈ 30	0.4	1.58 (1.13-2.19)	1				times more lipophilic than the starting mononitrate [1]: 200 times; IC50 [3, 10]: 13.8 µM; times more active than the starting mononitrate [3]: 1.58 times
